How the values were obtained:
Type in all cases: cell-based
[1] = system: AGS cell strain; experiment: Measurement of apoptosis (Annexin V staining, FACS); conditions: for Relative Apoptotic cell: mimic 10 nM, 10 uM 5-FU 24 h after transfection, then 48 hours, Annexin V, relative to scrambled control (=1), n=9; for effect on cell growth and apoptosis (summary statement): mimics transfected to AGS, tumor cell strain not infected with EBV
Description: Immediately after the AGS cell strain, which is an EBV-negative cell strain, was divided was divided into a 6-well plate such that 2×10^5 AGS cells were allocated to each well, a synthesized miRNA (10 nM) was transfected by using G-fectin and the resulting mixture was cultured at 37 t in an incubatorTwenty four hours after the transfection, 10 uM of 5-FU was treated and the resulting mixture was cultured in an incubator at 37° C. for 48 hours. The cells were detached by using Trypsin-EDTA and washed with PBS two times. Afterwards, the cells were treated with a PE Annexin V Apoptosis Detection Kit and the changed ratio of apoptotic cell was investigated by FACS (FIG. 7).
Immediately after the AGS cell strain, which is an EBV-negative cell strain, is divided into a 6-well plate such that 2×10^5 AGS cells were allocated to each well, a synthesized miRNA (10 nM) was transfected by using G-fectin and the resulting mixture was cultured at 37° C. Twenty four hours after the transfection, 10 uM of 5-FU, which is an anti-cancer agent, was treated and the resulting mixture was cultured in an incubator at 37° C. for 48 hours. The cells were detached by using Trypsin-EDTA and washed with PBS two times. Afterwards, the cells were treated with a PE Annexin V Apoptosis Detection Kit and the ratio of cells where apoptosis took place was measured by FACS.

[2] = system: AGS cell strain; experiment: Effect on cell cycle (propidium iodide staining, FACS, sub G1); conditions: for Relative Sub G1: mimic 10 nM, 10 uM 5-FU 24 h after transfection, then 48 hours, relative to scrambled control (=1)
Description: The AGS cells were divided into a 96-well plate such that 2×10^5 AGS cells were allocated to each well, and synthesized miRNAs (10 nM) were transfected and cultured at 37° C. in an incubator. Twenty four hours after the transfection, 10 uM of 5-FU, which is an anti-cancer agent, was treated in one case or not treated in another case, and then the resulting mixture was cultured in an incubator at 37° C. for 48 hours. The cells were detached by using Trypsin-EDTA and washed with PBS two times.
Immediately after the AGS cell strains, which are EBV-negative cell strains, were divided into a 6-well plate such that 2×10^5 AGS cells were allocated to each well, a synthesized miRNA (10 nM) was transfected by using G-fectin and cultured at 37° C. in an incubator. Twenty four hours after the transfection, 10 uM of 5-FU was treated and the resulting mixture was cultured at 37° C. in an incubator for 48 hours. The cells were detached by using Trypsin-EDTA and washed with PBS two times. Afterwards, DNA was stained by propidium iodide staining and the ratio of cells where cell cycle was changed was investigated by FACS.

[3] = system: AGS cell strain; experiment: Cell growth test (CCK-8 assay) after transfection of BART miRNA mimics; conditions: for Relative Cell Growth: relative to scrambled control (=1)
Description: An AGS cell strain (Korean Cell Line Bank), which is a stomach cancer cell strain, was cultured in an RPMI1640 (Gibco) culture medium including 10% fetal bovine serum. Mature type synthesized BART miRNAs were transfected to the AGS cell strain by using G-fectin (Genolution) according to a protocol of the manufacture.
To investigate the effect of individual EBV BART miRNAs on the AGS cell strain, the synthesized miRNAs were transfected to the AGS cell strain and, after 72 hours, cells were counted by CCK-8 assay.
Immediately after the AGS cell strain, which is an EBV-negative cell strain, was divided into 96-well plate having 1×10^3 cells/well, a synthesized miRNA (10 nM) was transfected by using G-fectin. After the transfection, according to the experimental objective, the cells were cultured at 37° C. in an incubator, and then CCK-8 was divided among the wells by allocating 10 μl of CCK-8 to each well and the resulting mixture was cultured in an incubator at 37° C. for two hours. Then, the light absorbance was measured with an ELISA measuring instrument.
By the method described in Example 3, miR-BART5-5p mimic or miR-BART15-3p mimic (10 nM) were transfected to the AGS cell strain, and the effect thereof on cell growth was investigated over time.
miR-BART5-5p, miR-BART15-3p, and miR-BART20-3p were transfected to the AGS cell strain (1×10^3 cells/well) in a concentration of 1, 3, 10, and 30 nM, and the effect on cell growth was investigated. Immediately after the AGS cell strain was divided into a 96-well plate such that 1×10^3 AGS cells were allocated to each well, a synthesized miRNA was transfected by using G-fectin. Seventy two hours after the transfection, CCK-8 was divided among the wells by allocating 10 μl of CCK-8 to each well, and the resulting mixture was cultured at 37° C. in an incubator for two hours.

[4] = mimic 10 nM, 72 hours after transfection, n=9
[5] = AGS, mimic 10 nM in combination with 10 uM 5-FU

Substance: BART1-3p: EBV BART miRNA mimic, double stranded RNA; sense SEQ NO: 11, antisense SEQ NO: 12 (sense UAGCACCGCUAUCCACUAUGUC; antisense GACAUAGUGGAUAGCGGUGCUA; chemistry not given here)
- Relative Apoptotic cell ([1]; AGS): 0.9231
- Relative Sub G1 [2]: 0.7947
- Relative Cell Growth [3, 4]: 1.201

Substance: BART1-5p: EBV BART miRNA mimic, double stranded RNA; sense SEQ NO: 9, antisense SEQ NO: 10 (sense UCUUAGUGGAAGUGACGUGCUGUG; antisense CACAGCACGUCACUUCCACUAAGA; chemistry not given here)
- Relative Apoptotic cell ([1]; AGS): 1.08
- Relative Apoptotic cell ([1]; AGS, listed as 1-5p): significantly higher
- effect on cell growth and apoptosis (summary statement) [1]: inhibit cell growth and promote apoptosis
- Relative Sub G1 [2]: 0.8028
- Relative Cell Growth [3, 4]: 1.141

Substance: BART2-3p: EBV BART miRNA mimic, double stranded RNA; sense SEQ NO: 87, antisense SEQ NO: 88 (sense AAGGAGCGAUUUGGAGAAAAUAAA; antisense UUUAUUUUCUCCAAAUCGCUCCUU; chemistry not given here)
- Relative Apoptotic cell ([1]; AGS): 1.062
- Relative Apoptotic cell ([1]; AGS, listed as 2-3p): significantly higher
- effect on cell growth and apoptosis (summary statement) [1]: inhibit cell growth and promote apoptosis
- Relative Sub G1 [2]: 1.178
- Relative Cell Growth [3, 4]: 1.433

Substance: BART2-5p: EBV BART miRNA mimic, double stranded RNA; sense SEQ NO: 85, antisense SEQ NO: 86 (sense UAUUUUCUGCAUUCGCCCUUGC; antisense GCAAGGGCGAAUGCAGAAAAUA; chemistry not given here)
- Relative Apoptotic cell ([1]; AGS): 1.082
- Relative Sub G1 [2]: 1.092
- Relative Cell Growth [3, 4]: 1.085

Substance: BART3-3p: EBV BART miRNA mimic, double stranded RNA; sense SEQ NO: 3, antisense SEQ NO: 4 (sense CGCACCACUAGUCACCAGGUGU; antisense ACACCUGGUGACUAGUGGUGCG; chemistry not given here)
- Relative Apoptotic cell ([1]; AGS): 1.111
- Relative Sub G1 [2]: 0.9648
- Relative Cell Growth [3, 4]: 1.135

Substance: BART3-5p: EBV BART miRNA mimic, double stranded RNA; sense SEQ NO: 1, antisense SEQ NO: 2 (sense ACCUAGUGUUAGUGUUGUGCU; antisense AGCACAACACUAACACUAGGU; chemistry not given here)
- Relative Apoptotic cell ([1]; AGS): 1.016
- Relative Sub G1 [2]: 0.8224
- Relative Cell Growth [3, 4]: 1.272

Substance: BART4-3p: EBV BART miRNA mimic, double stranded RNA; sense SEQ NO: 7, antisense SEQ NO: 8 (sense CACAUCACGUAGGCACCAGGUGU; antisense ACACCUGGUGCCUACGUGAUGUG; chemistry not given here)
- Relative Apoptotic cell ([1]; AGS): 1.133
- Relative Apoptotic cell ([1]; AGS, listed as 4-3p): significantly higher
- effect on cell growth and apoptosis (summary statement) [1]: inhibit cell growth and promote apoptosis
- Relative Sub G1 [2]: 0.755
- Relative Cell Growth [3, 4]: 1.065

Substance: BART4-5p: EBV BART miRNA mimic, double stranded RNA; sense SEQ NO: 5, antisense SEQ NO: 6 (sense GACCUGAUGCUGCUGGUGUGCU; antisense AGCACACCAGCAGCAUCAGGUC; chemistry not given here)
- Relative Apoptotic cell ([1]; AGS): 1.204
- Relative Apoptotic cell ([1]; AGS, listed as miR-BART4-5p): significantly higher
- effect on cell growth and apoptosis (summary statement) [1]: inhibit cell growth and promote apoptosis
- Relative Sub G1 [2]: 1.236
- Relative Sub G1 ([2]; listed as miR-BART4-5p): increased
- Relative Cell Growth [3, 4]: 0.9348

Substance: BART5-3p: EBV BART miRNA mimic, double stranded RNA; sense SEQ NO: 19, antisense SEQ NO: 20 (sense GUGGGCCGCUGUUCACCU; antisense AGGUGAACAGCGGCCCAC; chemistry not given here)
- Relative Apoptotic cell ([1]; AGS): 1.17
- effect on cell growth and apoptosis (summary statement) [1]: inhibit cell growth and promote apoptosis
- Relative Sub G1 [2]: 0.9486
- Relative Cell Growth [3, 4]: 0.9583

Substance: BART5-5p: EBV BART miRNA mimic, double stranded RNA; sense SEQ NO: 17, antisense SEQ NO: 18 (sense CAAGGUGAAUAUAGCUGCCCAUCG; antisense CGAUGGGCAGCUAUAUUCACCUUG; chemistry not given here)
- ratio of early apoptotic cell [1, 5]: increased
- ratio of late apoptotic cell [1, 5]: increased
- degree of apoptosis, combination with 5-FU versus sum of single treatments ([1]; AGS, mimic 10 nM plus 10 uM 5-FU): synergetic effect
- ratio of early apoptotic cell ([1]; AGS, mimic 10 nM treated alone): increased
- ratio of late apoptotic cell ([1]; AGS, mimic 10 nM treated alone): increased
- Relative Apoptotic cell ([1]; AGS): 1.325
- Relative Apoptotic cell ([1]; AGS, listed as 5-5p): significantly higher
- effect on cell growth and apoptosis (summary statement) [1]: inhibit cell growth and promote apoptosis
- ratio of sub G1 after the 5-FU treatment ([2]; mimic 10 nM plus 10 uM 5-FU (Example 6)): greatly increased
- Relative Sub G1 [2]: 2.111
- Relative Sub G1 ([2]; listed as 5-5p): increased
- cell growth depending on mimic concentration (onset of inhibition) ([3]; 1, 3, 10 and 30 nM, 72 hours after transfection): a tendency to inhibit cell growth beginning at 10 nM
- Relative Cell Growth [3, 4]: 0.5231
- Relative Cell Growth ([3]; mimic 10 nM, 72 hours after transfection, n=9, listed as miR-BART5-5p): inhibited cell growth
- cell growth over time ([3]; mimic 10 nM, depending on treatment time): greatly decreased cell growth

Substance: BART6-3p: EBV BART miRNA mimic, double stranded RNA; sense SEQ NO: 31, antisense SEQ NO: 32 (sense CGGGGAUCGGACUAGCCUUAGA; antisense UCUAAGGCUAGUCCGAUCCCCG; chemistry not given here)
- Relative Apoptotic cell ([1]; AGS): 1.018
- Relative Sub G1 [2]: 1.24
- Relative Sub G1 ([2]; listed as 6-3p): increased
- Relative Cell Growth [3, 4]: 0.9101

Substance: BART6-5p: EBV BART miRNA mimic, double stranded RNA; sense SEQ NO: 29, antisense SEQ NO: 30 (sense UAAGGUUGGUCCAAUCCAUAGG; antisense CCUAUGGAUUGGACCAACCUUA; chemistry not given here)
- Relative Apoptotic cell ([1]; AGS): 1.117
- Relative Sub G1 [2]: 1.023
- Relative Cell Growth [3, 4]: 0.881

From patent US9243247B2, “Composition for promoting apoptosis or inhibiting cell growth, comprising epstein-barr virus microrna” (Catholic University Industry Academic Cooperation Foundation, priority 2011, dated 2016)
